Measurements reported in PubChem BioAssay (NCI).
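Briefly, cells in 96-well plates were exposed to five compound concentrations for 48 h, and endpoints were estimated by linear interpolation. GI50 = concentration required for 50% inhibition of growth. At the TGI there is no net growth.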

Legend:
Assay in all cases: NCI tumour cell line growth inhibition, 48 h
SW-620 colon = test system: SW-620 colon
OVCAR-8 ovarian = test system: OVCAR-8 ovarian
HOP-62 NSCLC = test system: HOP-62 NSCLC
NCI-H460 lung = test system: NCI-H460 lung
M14 melanoma = test system: M14 melanoma
HL-60(TB) leukemia = test system: HL-60(TB) leukemia
U251 CNS = test system: U251 CNS
MDA-MB-435 = test system: MDA-MB-435
SF-268 CNS = test system: SF-268 CNS
SF-295 CNS = test system: SF-295 CNS
EKVX NSCLC = test system: EKVX NSCLC
TK-10 renal = test system: TK-10 renal
T-47D breast = test system: T-47D breast
NCI-H522 lung = test system: NCI-H522 lung
OVCAR-5 ovarian = test system: OVCAR-5 ovarian
MCF7 breast = test system: MCF7 breast
HS 578T breast = test system: HS 578T breast
NCI/ADR-RES ovarian = test system: NCI/ADR-RES ovarian
SNB-75 CNS = test system: SNB-75 CNS
UACC-62 melanoma = test system: UACC-62 melanoma
HCT-116 colon = test system: HCT-116 colon
SK-MEL-5 melanoma = test system: SK-MEL-5 melanoma
SF-539 CNS = test system: SF-539 CNS
SN12C renal = test system: SN12C renal
OVCAR-3 ovarian = test system: OVCAR-3 ovarian
HT29 colon = test system: HT29 colon
OVCAR-4 ovarian = test system: OVCAR-4 ovarian
RXF 393 renal = test system: RXF 393 renal
SK-OV-3 ovarian = test system: SK-OV-3 ovarian
HCC-2998 colon = test system: HCC-2998 colon
RPMI-8226 leukemia = test system: RPMI-8226 leukemia
KM12 colon = test system: KM12 colon
SK-MEL-28 melanoma = test system: SK-MEL-28 melanoma
K-562 leukemia = test system: K-562 leukemia
MOLT-4 leukemia = test system: MOLT-4 leukemia
HCT-15 colon = test system: HCT-15 colon
UACC-257 melanoma = test system: UACC-257 melanoma
SK-MEL-2 melanoma = test system: SK-MEL-2 melanoma
ACHN renal = test system: ACHN renal
CCRF-CEM leukemia = test system: CCRF-CEM leukemia
SNB-19 CNS = test system: SNB-19 CNS
DU-145 prostate = test system: DU-145 prostate
HOP-92 NSCLC = test system: HOP-92 NSCLC
IGROV1 ovarian = test system: IGROV1 ovarian
LOX IMVI melanoma = test system: LOX IMVI melanoma
SR leukemia = test system: SR leukemia
COLO 205 colon = test system: COLO 205 colon
MDA-MB-231 breast = test system: MDA-MB-231 breast
A498 renal = test system: A498 renal
A549 NSCLC = test system: A549 NSCLC
CAKI-1 renal = test system: CAKI-1 renal
PC-3 prostate = test system: PC-3 prostate
786-0 renal = test system: 786-0 renal
NCI-H23 lung = test system: NCI-H23 lung
UO-31 renal = test system: UO-31 renal
NCI-H226 lung = test system: NCI-H226 lung
MALME-3M melanoma = test system: MALME-3M melanoma
BT-549 breast = test system: BT-549 breast

SMILES: Cc1ccc(-c2cc3c(NC(=O)C4CC4)ncnc3o2)cc1
- GI50 (SW-620 colon): > 25 µM
- TGI (SW-620 colon): > 25 µM
- GI50 (OVCAR-8 ovarian): > 25 µM
- TGI (OVCAR-8 ovarian): > 25 µM
- GI50 (HOP-62 NSCLC): > 25 µM
- TGI (HOP-62 NSCLC): > 25 µM
- GI50 (NCI-H460 lung): > 25 µM
- TGI (NCI-H460 lung): > 25 µM
- GI50 (M14 melanoma): > 25 µM
- TGI (M14 melanoma): > 25 µM
- GI50 (HL-60(TB) leukemia): > 25 µM
- TGI (HL-60(TB) leukemia): > 25 µM
- GI50 (U251 CNS): > 25 µM
- TGI (U251 CNS): > 25 µM
- GI50 (MDA-MB-435): > 25 µM
- TGI (MDA-MB-435): > 25 µM
- GI50 (SF-268 CNS): > 25 µM
- TGI (SF-268 CNS): > 25 µM
- GI50 (SF-295 CNS): > 25 µM
- TGI (SF-295 CNS): > 25 µM
- GI50 (EKVX NSCLC): > 21.3 µM
- TGI (EKVX NSCLC): > 25 µM
- GI50 (TK-10 renal): > 25 µM
- TGI (TK-10 renal): > 25 µM
- GI50 (T-47D breast): > 25 µM
- TGI (T-47D breast): > 25 µM
- GI50 (NCI-H522 lung): > 25 µM
- TGI (NCI-H522 lung): > 25 µM
- GI50 (OVCAR-5 ovarian): > 25 µM
- TGI (OVCAR-5 ovarian): > 25 µM
- GI50 (MCF7 breast): > 25 µM
- TGI (MCF7 breast): > 25 µM
- GI50 (HS 578T breast): > 25 µM
- TGI (HS 578T breast): > 25 µM
- GI50 (NCI/ADR-RES ovarian): > 25 µM
- TGI (NCI/ADR-RES ovarian): > 25 µM
- GI50 (SNB-75 CNS): 24.2 µM
- TGI (SNB-75 CNS): > 25 µM
- GI50 (UACC-62 melanoma): > 25 µM
- TGI (UACC-62 melanoma): > 25 µM
- GI50 (HCT-116 colon): > 25 µM
- TGI (HCT-116 colon): > 25 µM
- GI50 (SK-MEL-5 melanoma): > 25 µM
- TGI (SK-MEL-5 melanoma): > 25 µM
- GI50 (SF-539 CNS): > 25 µM
- TGI (SF-539 CNS): > 25 µM
- GI50 (SN12C renal): > 25 µM
- TGI (SN12C renal): > 25 µM
- GI50 (OVCAR-3 ovarian): > 25 µM
- TGI (OVCAR-3 ovarian): > 25 µM
- GI50 (HT29 colon): > 25 µM
- TGI (HT29 colon): > 25 µM
- GI50 (OVCAR-4 ovarian): > 25 µM
- TGI (OVCAR-4 ovarian): > 25 µM
- GI50 (RXF 393 renal): > 25 µM
- TGI (RXF 393 renal): > 25 µM
- GI50 (SK-OV-3 ovarian): > 25 µM
- TGI (SK-OV-3 ovarian): > 25 µM
- GI50 (HCC-2998 colon): > 25 µM
- TGI (HCC-2998 colon): > 25 µM
- GI50 (RPMI-8226 leukemia): > 25 µM
- TGI (RPMI-8226 leukemia): > 25 µM
- GI50 (KM12 colon): > 25 µM
- TGI (KM12 colon): > 25 µM
- GI50 (SK-MEL-28 melanoma): > 25 µM
- TGI (SK-MEL-28 melanoma): > 25 µM
- GI50 (K-562 leukemia): > 25 µM
- TGI (K-562 leukemia): > 25 µM
- GI50 (MOLT-4 leukemia): > 25 µM
- TGI (MOLT-4 leukemia): > 25 µM
- GI50 (HCT-15 colon): > 25 µM
- TGI (HCT-15 colon): > 25 µM
- GI50 (UACC-257 melanoma): > 25 µM
- TGI (UACC-257 melanoma): > 25 µM
- GI50 (SK-MEL-2 melanoma): > 25 µM
- TGI (SK-MEL-2 melanoma): > 25 µM
- GI50 (ACHN renal): > 25 µM
- TGI (ACHN renal): > 25 µM
- GI50 (CCRF-CEM leukemia): > 25 µM
- TGI (CCRF-CEM leukemia): > 25 µM
- GI50 (SNB-19 CNS): > 25 µM
- TGI (SNB-19 CNS): > 25 µM
- GI50 (DU-145 prostate): > 25 µM
- TGI (DU-145 prostate): > 25 µM
- GI50 (HOP-92 NSCLC): > 25 µM
- TGI (HOP-92 NSCLC): > 25 µM
- GI50 (IGROV1 ovarian): > 25 µM
- TGI (IGROV1 ovarian): > 25 µM
- GI50 (LOX IMVI melanoma): > 25 µM
- TGI (LOX IMVI melanoma): > 25 µM
- GI50 (SR leukemia): > 25 µM
- TGI (SR leukemia): > 25 µM
- GI50 (COLO 205 colon): > 25 µM
- TGI (COLO 205 colon): > 25 µM
- GI50 (MDA-MB-231 breast): > 25 µM
- TGI (MDA-MB-231 breast): > 25 µM
- GI50 (A498 renal): > 25 µM
- TGI (A498 renal): > 25 µM
- GI50 (A549 NSCLC): > 25 µM
- TGI (A549 NSCLC): > 25 µM
- GI50 (CAKI-1 renal): > 25 µM
- TGI (CAKI-1 renal): > 25 µM
- GI50 (PC-3 prostate): > 25 µM
- TGI (PC-3 prostate): > 25 µM
- GI50 (786-0 renal): > 25 µM
- TGI (786-0 renal): > 25 µM
- GI50 (NCI-H23 lung): > 25 µM
- TGI (NCI-H23 lung): > 25 µM
- GI50 (UO-31 renal): > 25 µM
- TGI (UO-31 renal): > 25 µM
- GI50 (NCI-H226 lung): > 25 µM
- TGI (NCI-H226 lung): > 25 µM
- GI50 (MALME-3M melanoma): > 25 µM
- TGI (MALME-3M melanoma): > 25 µM
- GI50 (BT-549 breast): > 25 µM
- TGI (BT-549 breast): > 25 µM
